Experimental data as given in patent US8017612B2, “Piperazine compound and use thereof as a HCV polymerase inhibitor” (priority 2006, dated 2011).

Key:
[1] = target: T1, HCV polymerase (NS5B) type 1b (Hepatitis C virus genotype 1b, UniProt P26663); test: Assay of enzyme (HCV polymerase) inhibitory activity, type 1b enzyme; type: biochemical, HCV BK strain (type 1b); details: HCV polymerase inhibitory activity (IC50), 1b, type 1b enzyme 0.5 μg/ml, 25° C., 60 min
T1 construct: a region encoding NS5B (J Virol 1991 March, 65(3), 1105-13, 544 amino acids after deletion of 47 amino acids on the C-terminal); 6xHis (C); made in house; host or cells: Escherichia coli
Excerpt: (§1) The evaluation of the HCV polymerase inhibitory activity of the compound of the present invention is explained in the following. This polymerase is an enzyme coded for by the non-structural protein region called NS5B on the genome RNA of HCV.
(§2) i) Preparation of Enzyme (HCV Polymerase)
(§3) Using, as a template, a cDNA clone corresponding to the full length genome RNA of HCV BK strain (type 1b) obtained from the blood of a patient with hepatitis C, a region encoding NS5B (J Virol 1991 March, 65(3), 1105-13, 544 amino acids after deletion of 47 amino acids on the C-terminal) was amplified by PCR. The objective gene was prepared by adding a 6 His tag {base pair encoding 6 continuous histidine (His)} to the 3′ end thereof and transformed to Escherichia coli. The Escherichia coli capable of producing the objective protein was cultured. The obtained cells were suspended in a buffer solution and crushed in a microfluidizer. The supernatant was obtained by centrifugation and applied to various column chromatographys {mono-S, Sephacryl S-200 (Pharmacia)}, inclusive of metal chelate chromatography, to give a standard enzyme product.
(§4) ii) Synthesis of Substrate RNA
(§5) Using a synthetic primer designed based on the sequence of HCV genomic 3′ untranslated region, a DNA fragment (148 bp) containing polyU and 3′X sequence was entirely synthesized and cloned into plasmid pBluescript SK II(+) (Stratagene). The cDNA encoding full length NS5B, which was prepared in i) above, was digested with restriction enzyme KpnI to give a cDNA fragment containing the nucleotide sequence of from the restriction enzyme cleavage site to the termination codon. This cDNA fragment was inserted into the upstream of 3′ untranslated region of the DNA in pBluescript SK II(+) and ligated. The about 450 bp inserted DNA sequence was used as a template in the preparation of substrate RNA. This plasmid was cleaved immediately after the 3′X sequence, linearized and purified by phenol-chloroform treatment and ethanol precipitation to give DNA.
(§6) RNA was synthesized (37° C., 4 hr) by run-off method using this purified DNA as a template, a promoter of pBluescript SK II(+), MEGAscript RNA synthesis kit (Ambion) and T7 RNA polymerase. DNase I was added and the mixture was incubated for 1 hr. The template DNA was removed by decomposition to give a crude RNA product. This crude product was treated with phenol-chloroform and purified by ethanol precipitation to give the objective substrate RNA.
(§7) This RNA was applied to urea denaturation polyacrylamide gel electrophoresis to confirm the quality thereof and preserved at −80° C.
(§8) iii) Assay of Enzyme (HCV Polymerase) inhibitory activity
(§9) A test substance (compound of the present invention) and a reaction mixture (30 μl) having the following composition were reacted at 25° C. for 60 min.
(§10) 10% Trichloroacetic acid and 1% sodium pyrophosphate solution (150 μl) at 4° C. was added to this reaction mixture to stop the reaction. The reaction mixture was left standing at 4° C. for 15 min to insolubilize RNA. This RNA was trapped on a glass filter (PerkinElmer, GF/B) upon filtration by suction. This filter was washed with a solution containing 1% trichloroacetic acid and 0.1% sodium pyrophosphate, washed with 90% ethanol and dried. A liquid scintillation cocktail (PerkinElmer) was added and the radioactivity of RNA synthesized by the enzyme reaction was measured on a liquid scintillation counter.
The HCV polymerase inhibitory activity (IC50) of the compound of the present invention was calculated from the values of radioactivity of the enzyme reaction with and without the test substance.
Reaction mixture: HCV polymerase (type 1b 0.5 μg/ml or type 1a 1.5 μg/m) obtained in i), substrate RNA (5 μg/ml) obtained in ii), ATP (50 μM), GTP (50 μM), CTP (50 μM), UTP (2 μM), [5,6-^3H]UTP (30-60 Ci/mmol (Amersham Biosciences), 1 μCi) 20 mM Tris-HCl (pH 7.5), EDTA (1 mM), MgCl2 (5 mM), NaCl (50 mM), DTT (1 mM), BSA (0.01%)

[2] = target: T2, HCV polymerase (NS5B) type 1a (Hepatitis C virus genotype 1a, UniProt P26664); test: Assay of enzyme (HCV polymerase) inhibitory activity, type 1a enzyme; type: biochemical, HCV type 1a (cloned from the blood of patients); details: HCV polymerase inhibitory activity (IC50), 1a, type 1a enzyme 1.5 μg/ml, 25° C., 60 min
T2 construct: made in house; host or cells: Escherichia coli (by the 'similar method' of the 1b enzyme)
Excerpt: as §1, §2, §3
Standard enzyme products for type 1a (cloned from the blood of patients) were also obtained by a similar method.
as §4, §5, §6, §7, §8, §9, §10
The HCV polymerase inhibitory activity (IC50) of the compound of the present invention was calculated from the values of radioactivity of the enzyme reaction with and without the test substance. […]

Row | Structure (SMILES) | IC50 [1] | IC50 [2]
1 | CC(=O)N1CCN(S(=O)(=O)c2ccc(Cl)cc2)C(C(=O)NCc2ccc(C(F)(F)F)cc2)C1 (stereo not drawn) [Example 20, 4-acetyl-1-(4-chloro-benzenesulfonyl)-piperazine-2-carboxylic acid 4-trifluoromethyl-benzylamide] | > 1000 nM | > 1000 nM
2 | CC(=O)N1CCN(S(=O)(=O)c2ccccc2Cl)C(C(=O)NCc2ccc(C(F)(F)F)cc2)C1 (stereo not drawn) [Example 21, 4-acetyl-1-(2-chloro-benzenesulfonyl)-piperazine-2-carboxylic acid 4-trifluoromethyl-benzylamide] | > 1000 nM | > 1000 nM
3 | CC(=O)N1CCN(S(=O)(=O)c2ccc(Br)cc2)C(C(=O)NCc2ccc(C(F)(F)F)cc2)C1 (stereo not drawn) [Example 22, 4-acetyl-1-(4-bromo-benzenesulfonyl)-piperazine-2-carboxylic acid 4-trifluoromethyl-benzylamide] | > 1000 nM | > 1000 nM
4 | CC(=O)N1CCN(S(=O)(=O)c2ccc(Br)s2)C(C(=O)NCc2ccc(C(F)(F)F)cc2)C1 (stereo not drawn) [Example 23, 4-acetyl-1-(5-bromo-thiophene-2-sulfonyl)-piperazine-2-carboxylic acid 4-trifluoromethyl-benzylamide] | > 1000 nM | > 1000 nM
5 | CC(=O)N1CCN(S(=O)(=O)c2ccccc2)C(C(=O)NCc2ccc(C(F)(F)F)cc2)C1 (stereo not drawn) [Example 24, 4-acetyl-1-benzenesulfonyl-piperazine-2-carboxylic acid 4-trifluoromethyl-benzylamide] | > 1000 nM | > 1000 nM
6 | CC(=O)N1CCN(S(=O)(=O)c2ccc(Oc3ccc(Cl)cc3)cc2)C(C(=O)NCc2ccc(C(F)(F)F)cc2)C1 (stereo not drawn) [Example 25, 4-acetyl-1-[4-(4-chloro-phenoxy)-benzenesulfonyl]-piperazine-2-carboxylic acid 4-trifluoromethyl-benzylamide] | > 1000 nM | > 1000 nM
7 | CC(=O)N1CCN(S(=O)(=O)c2ccc(-c3ccc(Cl)cc3)cc2)C(C(=O)NCc2ccc(C(F)(F)F)cc2)C1 (stereo not drawn) [Example 26, 4-acetyl-1-(4′-chloro-biphenyl-4-sulfonyl)-piperazine-2-carboxylic acid 4-trifluoromethyl-benzylamide] | > 1000 nM | > 1000 nM
8 | CC(=O)N1CCN(S(=O)(=O)c2cc(C)cc(C)c2Oc2ccc(C#N)cc2)C(C(=O)NCc2ccc(C(F)(F)F)cc2)C1 (stereo not drawn) [Example 27, 4-acetyl-1-[2-(4-cyano-phenoxy)-3,5-dimethyl-benzenesulfonyl]-piperazine-2-carboxylic acid 4-trifluoromethyl-benzylamide] | > 1000 nM | > 1000 nM
9 | CC(=O)N1CCN(S(=O)(=O)c2ccc(-c3ccc(Cl)cc3)s2)C(C(=O)NCc2ccc(C(F)(F)F)cc2)C1 (stereo not drawn) [Example 28, 4-acetyl-1-[5-(4-chloro-phenyl)-thiophene-2-sulfonyl]-piperazine-2-carboxylic acid 4-trifluoromethyl-benzylamide] | > 1000 nM | > 1000 nM
10 | CC(=O)N1CCN(S(=O)(=O)c2cccc(Cl)c2)C(C(=O)NCc2ccc(C(F)(F)F)cc2)C1 (stereo not drawn) [Example 29, 4-acetyl-1-(3-chloro-benzenesulfonyl)-piperazine-2-carboxylic acid 4-trifluoromethyl-benzylamide] | > 1000 nM | > 1000 nM
11 | CC(=O)N1CCN(S(=O)(=O)c2ccc(C(C)(C)C)cc2)C(C(=O)NCc2ccc(C(F)(F)F)cc2)C1 (stereo not drawn) [Example 30, 4-acetyl-1-(4-tert-butyl-benzenesulfonyl)-piperazine-2-carboxylic acid 4-trifluoromethyl-benzylamide] | > 1000 nM | > 1000 nM
12 | CC(=O)c1ccc(S(=O)(=O)N2CCN(C(C)=O)CC2C(=O)NCc2ccc(C(F)(F)F)cc2)cc1 (stereo not drawn) [Example 31, 4-acetyl-1-(4-acetyl-benzenesulfonyl)-piperazine-2-carboxylic acid 4-trifluoromethyl-benzylamide] | > 1000 nM | > 1000 nM
13 | COC(=O)N1CCN(S(=O)(=O)c2ccc(C(C)C)cc2)C(C(=O)NCc2ccc(C(F)(F)F)cc2)C1 (stereo not drawn) [Example 32, 4-(4-isopropyl-benzenesulfonyl)-3-(4-trifluoromethyl-benzylcarbamoyl)-piperazine-1-carboxylic acid methyl ester] | > 1000 nM | > 1000 nM
14 | CC(=O)N1CCN(S(=O)(=O)c2ccc(C(C)C)cc2)C(C(=O)NCc2cccc(Cl)c2)C1 (stereo not drawn) [Example 33, 4-acetyl-1-(4-isopropyl-benzenesulfonyl)-piperazine-2-carboxylic acid 3-chloro-benzylamide] | > 1000 nM | > 1000 nM
15 | CC(=O)N1CCN(S(=O)(=O)c2ccc(C(C)C)cc2)C(C(=O)NCc2ccccc2Cl)C1 (stereo not drawn) [Example 34, 4-acetyl-1-(4-isopropyl-benzenesulfonyl)-piperazine-2-carboxylic acid 2-chloro-benzylamide] | > 1000 nM | > 1000 nM
16 | CC(=O)N1CCN(S(=O)(=O)c2ccc(C(C)C)cc2)C(C(=O)NCc2ccc(Cl)cc2)C1 (stereo not drawn) [Example 35, 4-acetyl-1-(4-isopropyl-benzenesulfonyl)-piperazine-2-carboxylic acid 4-chloro-benzylamide] | > 1000 nM | > 1000 nM
17 | CC(=O)N1CCN(S(=O)(=O)c2ccc(C(C)C)cc2)C(C(=O)NCc2ccc(-c3ccccc3)cc2)C1 (stereo not drawn) [Example 36, 4-acetyl-1-(4-isopropyl-benzenesulfonyl)-piperazine-2-carboxylic acid (biphenyl-4-ylmethyl)-amide] | > 1000 nM | 100 to 1000 nM
18 | CC(=O)N1CCN(S(=O)(=O)c2ccc(C(C)C)cc2)C(C(=O)NCc2ccc(N(C)C)cc2)C1 (stereo not drawn) [Example 37, 4-acetyl-1-(4-isopropyl-benzenesulfonyl)-piperazine-2-carboxylic acid 4-dimethylamino-benzylamide] | 100 to 1000 nM | 100 to 1000 nM
19 | CC(=O)N1CCN(S(=O)(=O)c2ccc(C(C)C)cc2)C(C(=O)NCc2ccc(S(N)(=O)=O)cc2)C1 (stereo not drawn) [Example 38, 4-acetyl-1-(4-isopropyl-benzenesulfonyl)-piperazine-2-carboxylic acid 4-sulfamoyl-benzylamide] | > 1000 nM | > 1000 nM
20 | CC(=O)Nc1ccc(S(=O)(=O)N2CCN(C(C)=O)CC2C(=O)NCc2ccc(C(F)(F)F)cc2)cc1 (stereo not drawn) [Example 39, 4-acetyl-1-(4-acetylamino-benzenesulfonyl)-piperazine-2-carboxylic acid 4-trifluoromethyl-benzylamide] | > 1000 nM | > 1000 nM
21 | CC(=O)N1CCN(S(=O)(=O)c2ccc([N+](=O)[O-])cc2)C(C(=O)NCc2ccc(C(F)(F)F)cc2)C1 (stereo not drawn) [Example 40, 4-acetyl-1-(4-nitro-benzenesulfonyl)-piperazine-2-carboxylic acid 4-trifluoromethyl-benzylamide] | > 1000 nM | > 1000 nM
